The record followed here is ChEMBL document CHEMBL5120800, “Lathyrane and Jatrophane Diterpenoids from Euphorbia helioscopia Evaluated for Cytotoxicity against a Paclitaxel-Resistant A549 Human Lung Cancer Cell Line” (J Nat Prod, 2022).

The nature of test [1]: Cytotoxicity against human A549/PTX cells assessed as inhibition of cell growth incubated for 72 hrs by MTT assay. It is filed as functional, cell-based.
Test [2] has as its system A549. Description: Cytotoxicity against human A549 cells assessed as inhibition of cell growth incubated for 72 hrs by MTT assay. It is filed as functional, cell-based. As to conditions: A549, 72 h.

Take `CC(=O)O[C@]12C[C@@H](C)[C@H](OC(=O)c3ccccc3)[C@@H]1/C=C(\C)[C@H](OC(=O)c1ccccc1)CC(=O)C(C)(C)/C=C/[C@@H](C)C2=O`: the values for the IC50 in test [1] and in test [2] were 7.2 µM and above 10 µM, respectively. On the same counts, the results for `CC(=O)O[C@@H]1[C@H](C)/C=C/C(C)(C)C(=O)C[C@@H](OC(=O)c2cccnc2)/C(C)=C/[C@H]2[C@@H](OC(=O)c3ccccc3)[C@H](C)C[C@]12OC(C)=O` are 9.5 µM and above 10 µM.

Consider `CC(=O)O[C@@H]1[C@H](C)/C=C/C(C)(C)C(=O)C[C@@H](OC(=O)c2ccccc2)/C(C)=C/[C@H]2[C@@H](OC(=O)c3ccccc3)[C@H](C)C[C@]12OC(C)=O` [EUPHOSCOPIN C], for which the IC50 in test [1] was 6.9 µM; in test [2], above 10 µM. As to `CC(=O)O[C@H]1C(=O)[C@@]2(C)[C@H]([C@H](OC(=O)c3ccccc3)[C@]3(O)C[C@H](OC(=O)[C@H](O)[C@@H](NC(=O)c4ccccc4)c4ccccc4)C(C)=C1C3(C)C)[C@]1(OC(C)=O)CO[C@@H]1C[C@@H]2O` [PACLITAXEL], in test [2], the IC50 turned out to be 0.0675 µM.
